Measurements from PubChem BioAssay AID1963977 (Molecular Pharmacology Branch, DTP, NCI, 2024).

Tested on: 624824-186-R-J3-PDC multicell spheroids, viability
Experiment: Anticancer human tumor 624824-186-R-J3-PDC patient-derived colon adenocarcinoma cell line growth inhibition [PI3K]
Conditions: for viability, T/C: stronger effect = lower value
Outline: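 Tumor cells were combined with HUVEC and MSCs into spheroids, then dosed with PI3K-inhibitor combinations over half-log ranges capped near clinical Cmax or 10 microM.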

[1] = curve of first compound, second compound 0.0316 µM
[2] = curve of first compound, second compound 0.1 µM
[3] = curve of first compound, second compound 0.316 µM
[4] = curve of first compound, second compound 1 µM
[5] = curve of first compound, second compound 3.16 µM
[6] = curve of first compound, second compound 10 µM
[7] = second compound 0.0316 µM, first compound 0.00316 µM
[8] = second compound 0.0316 µM, first compound 0.01 µM
[9] = second compound 0.0316 µM, first compound 0.0316 µM
[10] = second compound 0.0316 µM, first compound 0.1 µM
[11] = second compound 0.0316 µM, first compound 0.316 µM
[12] = second compound 0.0316 µM, first compound 1 µM
[13] = second compound 0.1 µM, first compound 0.00316 µM
[14] = second compound 0.1 µM, first compound 0.01 µM
[15] = second compound 0.1 µM, first compound 0.0316 µM
[16] = second compound 0.1 µM, first compound 0.1 µM
[17] = second compound 0.1 µM, first compound 0.316 µM
[18] = second compound 0.1 µM, first compound 1 µM
[19] = second compound 0.316 µM, first compound 0.00316 µM
[20] = second compound 0.316 µM, first compound 0.01 µM
[21] = second compound 0.316 µM, first compound 0.0316 µM
[22] = second compound 0.316 µM, first compound 0.1 µM
[23] = second compound 0.316 µM, first compound 0.316 µM
[24] = second compound 0.316 µM, first compound 1 µM
[25] = second compound 1 µM, first compound 0.00316 µM
[26] = second compound 1 µM, first compound 0.01 µM
[27] = second compound 1 µM, first compound 0.0316 µM
[28] = second compound 1 µM, first compound 0.1 µM
[29] = second compound 1 µM, first compound 0.316 µM
[30] = second compound 1 µM, first compound 1 µM
[31] = second compound 3.16 µM, first compound 0.00316 µM
[32] = second compound 3.16 µM, first compound 0.01 µM
[33] = second compound 3.16 µM, first compound 0.0316 µM
[34] = second compound 3.16 µM, first compound 0.1 µM
[35] = second compound 3.16 µM, first compound 0.316 µM
[36] = second compound 3.16 µM, first compound 1 µM
[37] = second compound 10 µM, first compound 0.00316 µM
[38] = second compound 10 µM, first compound 0.01 µM
[39] = second compound 10 µM, first compound 0.0316 µM
[40] = second compound 10 µM, first compound 0.1 µM
[41] = second compound 10 µM, first compound 0.316 µM
[42] = second compound 10 µM, first compound 1 µM
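Also: spheroids exposed to agents for seven days before luminescence read.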
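For viability, T/C in this document: luminescent signal used as a stand-in for spheroid viability; percent viability relative to DMSO vehicle control wells taken as 100%.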

CCN1CCN(Cc2ccc(Nc3ncc(F)c(-c4cc(F)c5nc(C)n(C(C)C)c5c4)n3)nc2)CC1 + CC(Nc1ncnc2nc[nH]c12)c1cc2cccc(Cl)c2c(=O)n1-c1ccccc1
IC50 [1]: > 1000 nM
IC50 [2]: > 1000 nM
IC50 [3]: > 1000 nM
IC50 [4]: > 1000 nM
IC50 [5]: > 1000 nM
IC50 [6]: > 1000 nM
viability, T/C [7]: 101%
viability, T/C [8]: 94%
viability, T/C [9]: 101%
viability, T/C [10]: 110%
viability, T/C [11]: 99%
viability, T/C [12]: 109%
viability, T/C [13]: 103%
viability, T/C [14]: 108%
viability, T/C [15]: 97.2%
viability, T/C [16]: 106%
viability, T/C [17]: 111%
viability, T/C [18]: 97.6%
viability, T/C [19]: 105%
viability, T/C [20]: 110%
viability, T/C [21]: 96.4%
viability, T/C [22]: 111%
viability, T/C [23]: 99.8%
viability, T/C [24]: 99.7%
viability, T/C [25]: 93.1%
viability, T/C [26]: 103%
viability, T/C [27]: 104%
viability, T/C [28]: 94.3%
viability, T/C [29]: 92.2%
viability, T/C [30]: 101%
viability, T/C [31]: 106%
viability, T/C [32]: 100%
viability, T/C [33]: 102%
viability, T/C [34]: 90.8%
viability, T/C [35]: 88.1%
viability, T/C [36]: 81.8%
viability, T/C [37]: 96.6%
viability, T/C [38]: 96.7%
viability, T/C [39]: 87%
viability, T/C [40]: 78.1%
viability, T/C [41]: 65.3%
viability, T/C [42]: 67%

CC(C)n1nc(-c2ccc3oc(N)nc3c2)c2c(N)ncnc21 + CC(Nc1ncnc2nc[nH]c12)c1cc2cccc(Cl)c2c(=O)n1-c1ccccc1
IC50 [1]: > 100 nM
IC50 [2]: > 100 nM
IC50 [3]: > 100 nM
IC50 [4]: > 100 nM
IC50 [5]: 91.8 nM
IC50 [6]: 61.9 nM
viability, T/C (second compound 0.0316 µM, first compound 0.000316 µM): 97.5%
viability, T/C (second compound 0.0316 µM, first compound 0.001 µM): 102%
viability, T/C [7]: 103%
viability, T/C [8]: 101%
viability, T/C [9]: 98.7%
viability, T/C [10]: 62.4%
viability, T/C (second compound 0.1 µM, first compound 0.000316 µM): 95.5%
viability, T/C (second compound 0.1 µM, first compound 0.001 µM): 107%
viability, T/C [13]: 116%
viability, T/C [14]: 107%
viability, T/C [15]: 91.5%
viability, T/C [16]: 69%
viability, T/C (second compound 0.316 µM, first compound 0.000316 µM): 98.8%
viability, T/C (second compound 0.316 µM, first compound 0.001 µM): 101%
viability, T/C [19]: 113%
viability, T/C [20]: 109%
viability, T/C [21]: 97.1%
viability, T/C [22]: 58.7%
viability, T/C (second compound 1 µM, first compound 0.000316 µM): 102%
viability, T/C (second compound 1 µM, first compound 0.001 µM): 111%
viability, T/C [25]: 100%
viability, T/C [26]: 103%
viability, T/C [27]: 98.1%
viability, T/C [28]: 62.2%
viability, T/C (second compound 3.16 µM, first compound 0.000316 µM): 105%
viability, T/C (second compound 3.16 µM, first compound 0.001 µM): 111%
viability, T/C [31]: 96.3%
viability, T/C [32]: 97.1%
viability, T/C [33]: 85.3%
viability, T/C [34]: 46.6%
viability, T/C (second compound 10 µM, first compound 0.000316 µM): 93.2%
viability, T/C (second compound 10 µM, first compound 0.001 µM): 91.3%
viability, T/C [37]: 95.1%
viability, T/C [38]: 79.9%
viability, T/C [39]: 68.1%
viability, T/C [40]: 37.6%

COc1c(OCCCN2CCOCC2)ccc2c3n(c(=NC(=O)c4cnc(N)nc4)nc12)CCN3
viability, T/C (compound 0.00316 µM): 102% [middle of 8 runs]
viability, T/C (compound 0.01 µM): 104% [middle of 8 runs]
viability, T/C (compound 0.0316 µM): 102% [middle of 8 runs]
viability, T/C (compound 0.1 µM): 85.9% [middle of 8 runs]
viability, T/C (compound 0.316 µM): 54.4% [middle of 8 runs]
viability, T/C (compound 1 µM): 31.7% [middle of 8 runs]
IC50 (compound alone, run of 04/25/2023): 380 nM [middle of 8 runs]

CC(Cn1ccc(-c2ccc(C#N)c(Cl)c2)n1)NC(=O)c1cc(C(C)O)[nH]n1 (stereo not given) + CC(Nc1ncnc2nc[nH]c12)c1cc2cccc(Cl)c2c(=O)n1-c1ccccc1
IC50 [1]: > 10000 nM
IC50 [2]: > 10000 nM
IC50 [3]: > 10000 nM
IC50 [4]: > 10000 nM
IC50 [5]: > 10000 nM
IC50 [6]: > 10000 nM
viability, T/C [9]: 104%
viability, T/C [10]: 97%
viability, T/C [11]: 98.8%
viability, T/C [12]: 99.6%
viability, T/C (second compound 0.0316 µM, first compound 3.16 µM): 105%
viability, T/C (second compound 0.0316 µM, first compound 10 µM): 109%
viability, T/C [15]: 104%
viability, T/C [16]: 102%
viability, T/C [17]: 95.3%
viability, T/C [18]: 104%
viability, T/C (second compound 0.1 µM, first compound 3.16 µM): 108%
viability, T/C (second compound 0.1 µM, first compound 10 µM): 97.7%
viability, T/C [21]: 103%
viability, T/C [22]: 103%
viability, T/C [23]: 103%
viability, T/C [24]: 104%
viability, T/C (second compound 0.316 µM, first compound 3.16 µM): 115%
viability, T/C (second compound 0.316 µM, first compound 10 µM): 117%
viability, T/C [27]: 102%
viability, T/C [28]: 111%
viability, T/C [29]: 100%
viability, T/C [30]: 115%
viability, T/C (second compound 1 µM, first compound 3.16 µM): 99.6%
viability, T/C (second compound 1 µM, first compound 10 µM): 113%
viability, T/C [33]: 96.3%
viability, T/C [34]: 101%
viability, T/C [35]: 112%
viability, T/C [36]: 97.1%
viability, T/C (second compound 3.16 µM, first compound 3.16 µM): 109%
viability, T/C (second compound 3.16 µM, first compound 10 µM): 104%
viability, T/C [39]: 93.2%
viability, T/C [40]: 99%
viability, T/C [41]: 94.2%
viability, T/C [42]: 88.2%
viability, T/C (second compound 10 µM, first compound 3.16 µM): 91.8%
viability, T/C (second compound 10 µM, first compound 10 µM): 95.6%

CNC(=O)c1ccc(N2C(=S)N(c3ccc(C#N)c(C(F)(F)F)c3)C(=O)C2(C)C)cc1F
viability, T/C (compound 0.0316 µM): 103% [middle of 4 runs]
viability, T/C (compound 0.1 µM): 102% [middle of 4 runs]
viability, T/C (compound 0.316 µM): 107% [middle of 4 runs]
viability, T/C (compound 1 µM): 104% [middle of 4 runs]
viability, T/C (compound 3.16 µM): 106% [middle of 4 runs]
viability, T/C (compound 10 µM): 104% [middle of 4 runs]
IC50 (curve of compound): > 10000 nM
